Results as given in the supplement of paper PMC10307832.

Legend:
Experiment in all cases: relative viability (nuclei count vs DMSO), 5 days (fraction); higher = more cells survive
Decitabine + Phenformin = compound: Nc1ncn([C@H]2C[C@H](O)[C@@H](CO)O2)c(=O)n1 [Decitabine] + N=C(N)NC(=N)NCCc1ccccc1 [Phenformin] (partner 250 µM)
Summary of the method: (§1)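 Relative viability was taken as the ratio of nuclei in treated wells to nuclei in vehicle wells. Lung cancer cell lines in 1536-well plates received compounds by pin tool one day after seeding, either one drug alone or a fixed anchor-drug dose plus five library-drug doses (not always all listed) in √10 steps. Nuclei were counted on 4× images after 5 days of treatment, and values are medians of duplicate plates.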

Cediranib + Tozasertib = compound: COc1cc2c(Oc3ccc4[nH]c(C)cc4c3F)ncnc2cc1OCCCN1CCCC1 [Cediranib] + Cc1cc(Nc2cc(N3CCN(C)CC3)nc(Sc3ccc(NC(=O)C4CC4)cc3)n2)n[nH]1 [Tozasertib] (partner 0.1 µM)
Summary of the method: as §1

Decitabine + Trametinib = compound: Nc1ncn([C@H]2C[C@H](O)[C@@H](CO)O2)c(=O)n1 [Decitabine] + CC(=O)Nc1cccc(-n2c(=O)n(C3CC3)c(=O)c3c(Nc4ccc(I)cc4F)n(C)c(=O)c(C)c32)c1 [Trametinib] (partner 0.02 µM)
Summary of the method: as §1

Decitabine + Dasatinib = compound: Nc1ncn([C@H]2C[C@H](O)[C@@H](CO)O2)c(=O)n1 [Decitabine] + Cc1nc(Nc2ncc(C(=O)Nc3c(C)cccc3Cl)s2)cc(N2CCN(CCO)CC2)n1 [Dasatinib] (partner 0.075 µM)
Summary of the method: as §1

Cell Line	relative viability (Decitabine + Phenformin; first compound 0.04 µM)	relative viability (Decitabine + Phenformin; first compound 0.1265 µM)	relative viability (Decitabine + Phenformin; first compound 0.4 µM)	relative viability (Decitabine + Phenformin; first compound 1.265 µM)	relative viability (Decitabine + Phenformin; first compound 4 µM)	relative viability (Cediranib + Tozasertib; first compound 0.04 µM)	relative viability (Cediranib + Tozasertib; first compound 0.1265 µM)	relative viability (Cediranib + Tozasertib; first compound 0.4 µM)	relative viability (Cediranib + Tozasertib; first compound 1.265 µM)	relative viability (Cediranib + Tozasertib; first compound 4 µM)	relative viability (Decitabine + Trametinib; first compound 0.04 µM)	relative viability (Decitabine + Trametinib; first compound 0.1265 µM)	relative viability (Decitabine + Trametinib; first compound 0.4 µM)	relative viability (Decitabine + Trametinib; first compound 1.265 µM)	relative viability (Decitabine + Trametinib; first compound 4 µM)	relative viability (Decitabine + Dasatinib; first compound 0.04 µM)	relative viability (Decitabine + Dasatinib; first compound 0.1265 µM)	relative viability (Decitabine + Dasatinib; first compound 0.4 µM)	relative viability (Decitabine + Dasatinib; first compound 1.265 µM)	relative viability (Decitabine + Dasatinib; first compound 4 µM)
NCI-H358	0.246	0.258	0.168	0.148	0.136	0.123	0.0968	0.0956	0.105	0.101	0.132	0.124	0.137	0.121	0.126	0.255	0.203	0.216	0.137	0.153
SW 900	0.319	0.32	0.269	0.19	0.219	0.605	0.507	0.584	0.48	0.571	0.389	0.435	0.288	0.262	0.288	0.35	0.405	0.387	0.292	0.163
NCI-H2087	0.411	0.359	0.291	0.242	0.25	0.279	0.257	0.213	0.226	0.228	0.175	0.179	0.189	0.179	0.163	0.523	0.452	0.358	0.246	0.23
COR-L 105	0.308	0.441	0.383	0.308	0.421	0.392	0.364	0.343	0.329	0.388	0.411	0.461	0.451	0.429	0.383	0.254	0.353	0.262	0.282	0.305
LCLC-97TM1	0.304	0.308	0.312	0.293	0.124	0.217	0.224	0.191	0.227	0.229	0.219	0.213	0.183	0.144	0.155	0.535	0.507	0.42	0.222	0.119
NCI-H520	0.42	0.347	0.37	0.328	0.288	0.57	0.35	0.543		0.426	0.529	0.349	0.424	0.307	0.266	0.263	0.242	0.217	0.239	0.19
NCI-H1993	0.558	0.494	0.507	0.504	0.478	0.607	0.586	0.596	0.565	0.734	0.491	0.431	0.394	0.432	0.511	0.542	0.57	0.608	0.484	0.55
NCI-H1437	0.29	0.311	0.209	0.233	0.26	0.434	0.426	0.365	0.412	0.421	0.444	0.412	0.404	0.337	0.342	0.357	0.376	0.256	0.167	0.169
LC-2-ad	0.512	0.552	0.509	0.419	0.416	0.496	0.373	0.456	0.507	0.371	0.778	0.837	0.763	0.651	0.573	0.416	0.603	0.404	0.262	0.261
HARA	0.307	0.36	0.236	0.148	0.125	0.125		0.107	0.118	0.123	0.285	0.454	0.491	0.228	0.304	0.311	0.261	0.232	0.257	0.138
NCI-H650	0.432	0.408	0.321	0.346	0.291	0.739	0.563	0.709	0.774	0.707	0.717	0.561	0.418	0.319	0.259	0.422	0.443	0.357	0.344	0.275
ABC-1	0.238	0.231	0.25	0.252	0.212	0.161	0.179	0.186		0.191						0.451	0.553	0.588	0.416	0.421
NCI-H1563	0.631	0.75	0.764	0.658	0.74											0.447	0.462	0.584	0.485	0.499
NCI-H1792	0.445	0.275	0.707	0.262	0.175						0.432	0.359	0.477	0.257	0.193	0.835	0.86	0.861	0.677	0.558
NCI-H1648						0.55		0.449	0.502	0.442	0.442	0.462	0.452	0.379	0.355					
A549	0.145	0.139	0.157	0.0732	0.0645															
